We go through one compound from PMC11017246, “Discovery of GLPG2737, a Potent Type 2 Corrector of CFTR for the Treatment of Cystic Fibrosis in Combination with a Potentiator and a Type 1 Co-corrector” (Journal of Medicinal Chemistry, 2024).

Converted amounts (≈) assume the structure as drawn. Like-named read-outs stand apart in the source and are kept apart here.

One data set can be described thus: Thermodynamic solubility. Format: physicochemical. The protocol: Dry matter of compound was dissolved at 1 mg/mL in buffers at different pH (Fasted simulated gastric fluid and pH 7.4) in glass vials. After 24 h of stirring at room temperature, a sample is taken, centrifuged for 10 min at 10,000 rpm, and filtered. The samples were diluted in duplicate in DMSO (F100 and F10). Then, a final dilution (F100) in 80/20 water/acetonitrile containing the internal standard was used for the LCMS-MS analysis.
A standard curve was made ranging from a 200,000–75 ng/mL stock in DMSO, freshly prepared from dry matter. The standard curve and quality controls were diluted in an F100 in 80/20 water/acetonitrile (with internal standard) and analyzed on LC/MS-MS. The peak areas of the standard curve are plotted in a graph, and a linear or polynomial of the second order equation is used to calculate the unknown concentrations of the test compound.

In a further data set the test system is MDCKII-MDR1 cells. Description: MDCK-MDR1 permeability assay. The data set is classed as in vitro ADME, canine. The settings on record: A to B, n = 2. The protocol: (§1) MDCKII-MDR1 cells were seeded on Millicell-24 cell culture insert plate assemblies at a final concentration of 0.12 × 10^6 cells/well. Cells were cultured in a CO2 incubator for 3–4 days prior to experiment start with media replacement 24 h post seeding. On the day of the experiment, cells were preincubated for 45 min with Dulbecco’s Phosphate Buffer saline (D-PBS, pH7.4), containing 1% of DMSO. Compounds were prepared in D-PBS, pH 7.4 and added to either the apical or basolateral chambers of the Millicell cell culture insert plates assembly at a final concentration of 10 μM with a final DMSO concentration of 1%. Lucifer Yellow was added to all donor buffer solutions in order to assess integrity of the cell monolayers by monitoring Lucifer Yellow permeation. […] After brief mixing and centrifugation, the supernatant was analyzed by LC-MS/MS. The apparent permeability coefficient (Papp) was calculated according to the following equation: Papp = (dQ/dT)(1/C0)(1/A), where dQ/dT = permeability rate; C0 = initial concentration in donor compartment; A = surface area of the cell monolayer (0.7 cm^2). […] The efflux ratio is calculated as Papp from B to A divided by Papp from A to B. Passive permeability (×10^–6 cm/s) is calculated by the formula: Papp from A to B × efflux ratio + 1/2.

Data set [1] in a line: MDCK-MDR1 permeability assay. The data set is classed as in vitro ADME, canine. To be noted: dog, MDCK-MDR1, pH 7.4; A to B, n = 2; read-out: MDCK-MDR1 PA2B. The protocol: as §1
Data set [2] can be described thus: Measured pKa (potentiometric and UV methods). Format: physicochemical. To be noted: measured at Charles River.
For the next data set, the target named is hERG (Homo sapiens, UniProt Q12809). The data set can be described thus: hERG manual patch clamp test. The data set is classed as cell-based. (Block of hERG is tested as a sign of cardiac risk.)
The target in another data set is T1, CYP2C9 (Homo sapiens, UniProt P11712).
T1 construct: tissue BD Gentest; host or cells: human liver microsomes
Description: CYP reversible inhibition in HLM, CYP2C9. The data set is classed as in vitro ADME. To be noted: probe diclofenac; read-out: CYP inhibition in HLM IC50, CYP2C9. The protocol: Test compounds were diluted in methanol and then added to mixture containing 50 mM potassium phosphate buffer, pH 7.4, human liver microsomes (BD Gentest) and probe substrate. After prewarming for 5 min at 37 °C, the reaction was started by adding cofactor mix (7.65 mg/mL glucose-6-phosphate, 1.7 mg/mL NADP, 6 U/mL of glucose-6-phosphate dehydrogenase), resulting in seven final concentrations of test compounds in the range 0.14–100 μM (2% methanol). Isoform specific conditions regarding probe substrate and microsomal protein concentrations are available in Table 2. Final concentrations of cofactor mix components were as follows: 1.56 mg/mL glucose-6-phosphate, 0.34 mg/mL NADP, and 1.2 U/mL glucose-6-phosphate dehydrogenase. After incubation at 37 °C, the reaction was terminated with acetonitrile:methanol (2:1) solution with internal standard. Samples were centrifuged, and the supernatant fractions were analyzed by LC-MS/MS. The instrument responses (test compounds and internal standard peak areas) were referenced to those for solvent controls (assumed as 100%) in order to determine the percentage reduction in probe metabolism. Percent of control activity vs concentration plots were generated and fitted using GraphPad Prism software to generate IC50.

A short description of data set [3]: Liver microsomal stability, human. The data set is classed as in vitro ADME. To be noted: human; matrix not given; read-out: Clintr,unbound human (converted). The protocol: The microsomal stability assay was performed by incubation of test compound at 1 μM, 0.2% DMSO in phosphate buffer with microsomes (0.5 mg/mL) from mouse, rat, dog, or human (Xeno-Tech, Kansas City, KS, USA), and cofactors with final concentrations of 0.6 U/mL glucose-6- phosphate dehydrogenase, 3.3 mM MgCl2, 3.3 mM glucose-6-phosphate, and 1.3 mM nicotinamide adenine dinucleotide phosphate (NADP)+. Before addition of the microsomes (time zero) and after 30 min of incubation at 37 °C with shaking, the reaction was stopped, and proteins were precipitated with an excess of acetonitrile containing an internal standard. The samples were mixed, centrifuged, and filtered, and the supernatant was analyzed by liquid chromatography–mass spectrometry/mass spectrometry (LC–MS/MS). The instrument responses (peak areas/IS peak areas) were referenced to the zero-time point samples (considered as 100%) to determine the percentage of compound remaining. In vitro unbound intrinsic clearance (CLint,u) was calculated from the half-life using the following equations: [drawing 1] [drawing 2] To take into account nonspecific binding, scaled CLint values were corrected with the fraction unbound in microsomes (fu, mic). [drawing 3]
Equilibrium dialysis is a technique used to measure microsomal binding. Briefly, the assay was performed in a 96-well Teflon dialysis unit (Dialysis Device), where each well consists of two chambers separated by a dialysis membrane (membrane strips, MW cutoff 12–14 kDa, HTDialysis). Inactivated liver microsomes (pooled human liver microsomes, Xenotech, protein concentration of 0.5 mg/mL) spiked with a compound (1 μM final concentration, 0.5% DMSO) were added to one chamber and buffer solution (50 mM PBS Buffer) was added to the other side of the well. Each compound was analyzed in duplicate for 4 h at 37 °C. At the end of incubation, both chambers were sampled and analyzed by LC-MS/MS. The unbound microsomal fraction (fu, mic) was calculated as the concentration in buffer divided by the total concentration in the microsomal side. Positive controls included in this assay are terfenadine and verapamil.
On the technique in general: Liver microsomes are vesicles of endoplasmic reticulum, rich in cytochrome P450 enzymes.

Chain of hERG (Q12809 whole entry): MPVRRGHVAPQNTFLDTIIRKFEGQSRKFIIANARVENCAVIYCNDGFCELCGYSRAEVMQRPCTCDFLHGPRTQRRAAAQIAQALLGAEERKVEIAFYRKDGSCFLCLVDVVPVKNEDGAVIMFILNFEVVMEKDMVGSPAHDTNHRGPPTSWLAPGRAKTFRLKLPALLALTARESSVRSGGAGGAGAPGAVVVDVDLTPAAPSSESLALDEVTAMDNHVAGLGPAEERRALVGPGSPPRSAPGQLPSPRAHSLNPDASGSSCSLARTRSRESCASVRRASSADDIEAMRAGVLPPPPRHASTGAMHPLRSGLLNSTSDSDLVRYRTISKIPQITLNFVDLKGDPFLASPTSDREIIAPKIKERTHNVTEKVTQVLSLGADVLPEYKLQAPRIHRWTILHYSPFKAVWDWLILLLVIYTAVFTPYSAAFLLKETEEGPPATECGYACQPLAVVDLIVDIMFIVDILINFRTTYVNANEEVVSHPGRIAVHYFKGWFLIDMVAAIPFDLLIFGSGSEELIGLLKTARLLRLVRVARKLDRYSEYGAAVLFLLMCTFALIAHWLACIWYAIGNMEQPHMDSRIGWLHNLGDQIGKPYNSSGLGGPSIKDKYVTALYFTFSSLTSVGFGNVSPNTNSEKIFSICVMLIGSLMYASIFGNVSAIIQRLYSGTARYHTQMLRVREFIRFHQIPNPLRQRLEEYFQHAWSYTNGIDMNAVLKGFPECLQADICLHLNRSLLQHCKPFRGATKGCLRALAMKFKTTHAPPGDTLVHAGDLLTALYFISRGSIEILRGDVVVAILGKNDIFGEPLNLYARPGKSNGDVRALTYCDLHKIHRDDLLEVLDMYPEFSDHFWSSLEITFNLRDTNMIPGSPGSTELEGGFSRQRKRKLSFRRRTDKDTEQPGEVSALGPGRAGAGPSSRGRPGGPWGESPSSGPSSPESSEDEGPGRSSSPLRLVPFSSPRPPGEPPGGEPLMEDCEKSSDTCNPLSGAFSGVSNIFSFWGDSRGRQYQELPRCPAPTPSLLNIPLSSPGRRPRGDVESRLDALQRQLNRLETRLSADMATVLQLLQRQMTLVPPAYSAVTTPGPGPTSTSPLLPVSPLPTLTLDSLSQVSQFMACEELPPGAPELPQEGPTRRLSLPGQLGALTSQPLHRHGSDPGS
T1 sequence (P11712 whole entry): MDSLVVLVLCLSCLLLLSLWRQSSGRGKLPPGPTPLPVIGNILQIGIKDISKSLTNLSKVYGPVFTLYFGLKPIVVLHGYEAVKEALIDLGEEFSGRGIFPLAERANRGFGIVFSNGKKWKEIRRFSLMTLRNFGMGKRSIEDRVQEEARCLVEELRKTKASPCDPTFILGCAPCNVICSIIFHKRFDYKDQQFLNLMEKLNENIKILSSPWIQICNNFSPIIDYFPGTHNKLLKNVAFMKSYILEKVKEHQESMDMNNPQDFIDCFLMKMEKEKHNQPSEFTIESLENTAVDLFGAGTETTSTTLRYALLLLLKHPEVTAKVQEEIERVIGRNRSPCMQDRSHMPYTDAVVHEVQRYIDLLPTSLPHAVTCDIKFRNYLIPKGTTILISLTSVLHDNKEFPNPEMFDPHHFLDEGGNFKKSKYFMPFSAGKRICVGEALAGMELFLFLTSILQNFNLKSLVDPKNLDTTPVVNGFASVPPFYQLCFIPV

In general, solubility (thermodynamic) refers to the concentration in solution at equilibrium with solid. The pKa is the negative logarithm of the acid dissociation constant. Usually IC50 stands for the concentration that gives 50% inhibition. `COC1CCN(C2CCN(c3cc(C(=O)NS(=O)(=O)N(C)C)nc4c3c(C3CCC3)nn4-c3ccc(F)cc3)CC2)CC1` [Compound 52, 3-Cyclobutyl-N-(N,N-dimethylsulfamoyl)-1-(4-fluorophenyl)-4-(4-methoxy-[1,4′-bipiperidin]-1′-yl)-1H-pyrazolo[3,4-b]pyridine-6-carboxamide]: the solubility (thermodynamic) at 24 h is 9.9 µg/mL (≈ 16.1 µM) in the data set “Thermodynamic solubility” (buffer pH 7.4, pH 7.4, read-out: thermodynamic solubility pH 7.4) and 10.9 µg/mL (≈ 17.8 µM) in “Thermodynamic solubility” (fasted simulated gastric fluid, read-out: thermodynamic solubility FASSGF). The “MDCK-MDR1 PA2B” value with MDCKII-MDR1 cells is recorded as 5.45 cm × 10^–6 s^–1. Besides, the Papp A→B at 1 h, 10 μM in data set [1] was 5.45 ×10⁻⁶ cm/s. The pKa in data set [2] (UV method, read-out: measured acylsulfonamyl pKa) is 4.74; in data set [2] (UV method, read-out: measured piperidine pKa), 8.51; in data set [2] (potentiometric method, read-out: measured acylsulfonamyl pKa) it was 4.96; in data set [2] (potentiometric method, read-out: measured piperidine pKa), 8.42. In addition, the hERG inhibition result at hERG is listed as “No significant inhibition”. Besides, on CYP2C9, the IC50 was 1400 nM. In data set [3], the CLint scaled at 1 μM is 66.7 mL/min/kg.
